Test results as given in ChEMBL document CHEMBL1201862, “PubChem BioAssay data set” (2004).
Calls of active or inactive are those of the source.

What was measured:
Estrogen receptor beta = Estrogen receptor beta (Homo sapiens, UniProt Q92731);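 also: recombinant ER-beta bound to coactivator SRC1 peptide in presence of estradiol agonist; inhibitors block coactivator peptide binding and lower the FRET signal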
[1] = target: T1, Oxysterols receptor LXR-beta (Homo sapiens, UniProt P55055); type: functional, cell-based
T1 sequence (P55055 whole entry): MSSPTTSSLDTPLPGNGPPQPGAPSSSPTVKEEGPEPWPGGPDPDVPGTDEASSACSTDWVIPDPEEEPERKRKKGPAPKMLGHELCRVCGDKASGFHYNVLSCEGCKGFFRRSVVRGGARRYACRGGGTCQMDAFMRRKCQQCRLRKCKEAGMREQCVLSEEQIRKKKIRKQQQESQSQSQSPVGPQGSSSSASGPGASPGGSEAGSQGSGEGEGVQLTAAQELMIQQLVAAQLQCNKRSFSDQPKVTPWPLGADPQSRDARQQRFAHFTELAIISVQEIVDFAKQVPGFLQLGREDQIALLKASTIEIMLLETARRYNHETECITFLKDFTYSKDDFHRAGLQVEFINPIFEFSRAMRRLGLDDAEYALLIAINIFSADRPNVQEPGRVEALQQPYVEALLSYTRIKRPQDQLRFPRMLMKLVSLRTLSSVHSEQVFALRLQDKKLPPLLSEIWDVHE

Aminopeptidase N = target: T2, Aminopeptidase N (Plasmodium falciparum FcB1/Columbia, UniProt O96935); assay: malaria alanyl aminopeptidase activity blockers – biochemical, fluorogenic H-Leu-NHMec substrate, 1536-well (AID 1445); design: species or system Plasmodium falciparum 3D7, 3D7
T2 sequence (O96935 whole entry): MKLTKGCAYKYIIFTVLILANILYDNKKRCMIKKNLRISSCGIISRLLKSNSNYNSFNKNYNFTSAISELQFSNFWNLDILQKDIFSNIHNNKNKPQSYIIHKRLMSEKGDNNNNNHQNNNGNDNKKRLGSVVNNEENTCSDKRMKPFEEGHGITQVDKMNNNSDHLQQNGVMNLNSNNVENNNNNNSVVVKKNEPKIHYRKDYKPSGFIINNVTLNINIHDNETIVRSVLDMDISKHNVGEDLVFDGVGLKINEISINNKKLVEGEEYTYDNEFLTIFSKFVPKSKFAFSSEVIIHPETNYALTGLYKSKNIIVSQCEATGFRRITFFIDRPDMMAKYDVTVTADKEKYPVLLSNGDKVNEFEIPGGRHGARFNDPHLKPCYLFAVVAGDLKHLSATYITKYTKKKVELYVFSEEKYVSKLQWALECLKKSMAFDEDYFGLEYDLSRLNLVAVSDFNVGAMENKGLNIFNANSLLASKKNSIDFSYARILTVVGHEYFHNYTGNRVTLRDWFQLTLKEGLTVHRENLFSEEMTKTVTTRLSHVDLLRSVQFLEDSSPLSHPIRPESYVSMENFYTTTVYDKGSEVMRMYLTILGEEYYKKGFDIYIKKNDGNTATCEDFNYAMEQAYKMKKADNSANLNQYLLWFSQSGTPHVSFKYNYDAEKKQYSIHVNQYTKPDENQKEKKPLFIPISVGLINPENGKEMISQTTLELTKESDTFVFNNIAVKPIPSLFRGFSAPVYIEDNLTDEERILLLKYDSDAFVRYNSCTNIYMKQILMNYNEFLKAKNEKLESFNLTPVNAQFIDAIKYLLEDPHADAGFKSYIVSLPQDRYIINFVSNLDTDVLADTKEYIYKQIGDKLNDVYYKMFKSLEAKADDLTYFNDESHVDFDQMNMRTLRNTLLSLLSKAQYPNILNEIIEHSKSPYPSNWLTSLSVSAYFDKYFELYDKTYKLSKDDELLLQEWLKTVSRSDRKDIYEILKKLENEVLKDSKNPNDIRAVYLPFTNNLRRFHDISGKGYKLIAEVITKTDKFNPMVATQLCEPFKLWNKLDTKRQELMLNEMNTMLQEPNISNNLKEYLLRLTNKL

Streptococcus = assay: GAS UMAA2166 growth inhibition – luminescence, BacTiterGlo, counter-screen for streptokinase expression inhibitor project, dose response (AID 1915); type: functional, organism-based;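 also: potency for reduction of bacterial viability or growth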
Albumin = Albumin (Bos taurus, UniProt P02769); assay: Counterscreen for inhibitors of T-cell receptor (TCR)-CD3 interaction: Fluorescence-based biochemical high throughput dose response assay to identify inhibitors of T-cell receptor (TCR)-CD3 interaction using a TAMRA-labeled BSA probe.; type: functional
[2] = system: Streptococcus sp. 'group A'; assay: Streptococcus pyogenes SK(-)GAS viability under kanamycin – luminescence, BacTiterGlo, confirmation, counter-screen for streptokinase expression inhibitor project, dose response (AID 1900); type: functional, organism-based
Vero = assay: cells; type: functional; conditions: Chlorocebus sabaeus
cells [3] = type: functional, cell-based; conditions: HEK-CNG
Galanin receptor type 3 = target: T3, Galanin receptor type 3 (Homo sapiens, UniProt O60755); assay: Fluorescence-based cell-based primary high throughput dose response assay to identify antagonists of the Galanin Receptor 3 (GalR3).; type: functional
T3 sequence (O60755 whole entry): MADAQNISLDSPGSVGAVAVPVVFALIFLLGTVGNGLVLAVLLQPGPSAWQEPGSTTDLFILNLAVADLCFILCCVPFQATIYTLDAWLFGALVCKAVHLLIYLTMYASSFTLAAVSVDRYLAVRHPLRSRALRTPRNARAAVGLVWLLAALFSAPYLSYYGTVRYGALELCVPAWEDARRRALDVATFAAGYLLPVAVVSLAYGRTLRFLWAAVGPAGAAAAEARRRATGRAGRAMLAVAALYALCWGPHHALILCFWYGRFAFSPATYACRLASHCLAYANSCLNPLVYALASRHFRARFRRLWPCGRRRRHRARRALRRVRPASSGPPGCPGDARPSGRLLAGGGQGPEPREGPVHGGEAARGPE

Major prion protein = Major prion protein (Homo sapiens, UniProt P04156); type: functional, cell-based
cells [4] = assay: cells
[5] = target: T1, Oxysterols receptor LXR-beta; assay: LXR agonists, Gal4 luciferase reporter, dose response, counter-screen for ssDAF-12 agonist project, cell-based, luminescence, HEK293, S. stercoralis campaign (AID 720737); type: functional; conditions: read-out: IC50 (the source's name)
[6] = Luminescence-based cell-based high throughput dose response assay to identify activators of the DAF-12 from the parasite S. stercoralis (ssDAF-12).; type: functional
cells [7] = assay: cells; remark: listed apart in the source
[8] = target: T1, Oxysterols receptor LXR-beta; type: functional, cell-based; remark: listed apart in the source
H4 = assay: Luminescence Cell-Based Dose Response HTS to Identify Activators of 5'UTR Stem-Loop Driven Prion Protein mRNA Translation in H4 Neuroglioblastoma Cells. [Related pubchem assays: 1829 (Project Summary), 1814 (Primary HTS)]; type: functional; conditions: Homo sapiens
[9] = Luminescence Cell-Based Dose Response HTS to Identify Activators of Luciferase Translation or Activity in H4 […] Cells. [Related pubchem assays: 1829 (Project Summary), 1814 (Primary HTS)]; type: functional
[10] = NIH3T3 cell viability loss – ATP luminescence, mouse fibroblasts, counter-screen, dose response (AID 2010); type: functional, cell-based;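 also: cells exposed to compound for about 90 hours before reading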
[11] = viability loss in THP-1 monocytes – THP-1 cells, cytotoxicity control for Vif-APOBEC3G degradation inhibitor project, dose response (AID 1117359); type: functional; conditions: THP-1
[12] = Trypanosoma cruzi growth suppression in host cells – NIH3T3 host cells, beta-gal luminescence, confirmation (AID 2044); type: functional, cell-based;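 also: intracellular parasites grown in NIH/3T3 mouse fibroblasts as host cells; luminescent beta-galactosidase reporter signal from transgenic T. cruzi replicating inside host cells; inhibitors lower the luminescence signal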
Paired box protein Pax-8 = Paired box protein Pax-8 (Homo sapiens, UniProt Q06710); assay: PAX8 transcriptional activity inhibition in RMG-I – RMG-I cells, luciferase, cherry-pick, dose response (AID 687027); type: functional, cell-based;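 also: luciferase reporter driven by Pax8 target thyroperoxidase promoter measured by SteadyGlo luminescence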
[13] = IGROV1 cell killing – plate reader, dry powder samples, PAX8 inhibitor project, dose response (AID 743043); type: functional, cell-based; conditions: IGROV-1
[14] = OVCAR8 cell viability loss – plate reader, dry powder samples, PAX8 project, dose response (AID 743197); type: functional, cell-based; conditions: OVCAR-8
[15] = OVCAR-3 cell viability loss – plate reader, dry powder samples, PAX8 inhibitor project, dose response (AID 743044); type: functional, cell-based
[16] = target: T4, Zinc finger protein mex-5 (Caenorhabditis elegans, UniProt Q9XUB2); assay: potency of MEX-5 RNA-binding blockers – biochemical, C. elegans, fluorescence polarization, dose response (AID 1960)
T4 sequence (Q9XUB2 whole entry): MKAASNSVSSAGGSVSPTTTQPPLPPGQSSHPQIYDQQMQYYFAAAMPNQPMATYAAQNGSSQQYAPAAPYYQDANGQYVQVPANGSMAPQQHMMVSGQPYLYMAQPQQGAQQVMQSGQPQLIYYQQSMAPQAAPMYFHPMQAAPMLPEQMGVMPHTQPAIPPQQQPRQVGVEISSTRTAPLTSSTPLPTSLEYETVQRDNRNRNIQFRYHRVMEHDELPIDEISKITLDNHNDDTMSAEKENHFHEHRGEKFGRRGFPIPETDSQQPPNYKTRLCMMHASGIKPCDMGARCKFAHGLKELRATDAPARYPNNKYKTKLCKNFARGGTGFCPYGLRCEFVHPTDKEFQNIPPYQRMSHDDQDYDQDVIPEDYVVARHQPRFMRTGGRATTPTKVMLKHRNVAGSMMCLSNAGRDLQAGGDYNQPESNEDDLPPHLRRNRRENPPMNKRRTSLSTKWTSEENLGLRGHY

[17] = target: T5, RNA-binding protein pos-1 (Caenorhabditis elegans, UniProt G5EF15); assay: disruptors of C. elegans POS-1 RNA interaction – biochemical, fluorescence polarization, dose response (AID 1964);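 also: purified POS-1 fused to maltose binding protein made in E. coli; potency of compounds blocking POS-1 binding to fluorescent RNA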
T5 sequence (G5EF15 whole entry): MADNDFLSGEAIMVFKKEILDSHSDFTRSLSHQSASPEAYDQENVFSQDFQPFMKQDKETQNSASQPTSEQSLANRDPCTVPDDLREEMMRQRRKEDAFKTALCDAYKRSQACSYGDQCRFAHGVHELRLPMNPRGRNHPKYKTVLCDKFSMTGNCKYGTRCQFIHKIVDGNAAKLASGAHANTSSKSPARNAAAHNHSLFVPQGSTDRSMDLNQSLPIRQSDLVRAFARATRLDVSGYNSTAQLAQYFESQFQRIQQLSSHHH

SMILES: O=C(Nc1cc(C(F)(F)F)ccc1N1CCOCC1)C1Cc2ccccc2CN1C(=O)c1ccco1 (centres undefined)
- IC50 (Estrogen receptor beta): 5.94 µM (active)

SMILES: Cc1cc(OCc2cc(C(=O)NCc3cc(C(C)C)no3)no2)cc(C)c1Cl
- EC50 [1]: > 67.5 µM (inactive)

SMILES: CCN1CCN(Cc2c(O)c(Cl)cc3c(C)cc(=O)oc23)CC1
- IC50 (Estrogen receptor beta): 18 µM (active)
- IC50 (Aminopeptidase N): 38.3 µM (active)

SMILES: COc1ccc(C(=O)NNC(=S)NC(=O)c2ccc(Br)o2)cc1OC
- EC50 (Streptococcus): 9.11 µM (active)
- IC50 (Albumin): > 94.1 µM (inactive)
- EC50 [2]: 0.79 µM (active)
- CC50 (Vero): > 25 µM (active)

SMILES: CC1(C)CC2CC(C)(CN2S(=O)(=O)c2ccc(C(=O)Nc3cccc(S(=O)(=O)N4CCOCC4)c3)cc2)C1 (centres undefined)
- EC50 (cells [3]): > 29.9 µM (inactive)
- IC50 (Galanin receptor type 3): 0.805 µM (active)
- IC50 (Albumin): > 94.1 µM (inactive)

SMILES: CCc1nc(SCC(=O)NNC(=O)c2ccc(C)cc2)c2ccccc2n1
- IC50 (Major prion protein): 1.36 µM (active)
- IC50 (cells [4]): > 138 µM (inactive)

SMILES: Cn1cc(Cl)c(C(=O)Nc2nc3ccccc3s2)n1
- EC50 [5]: > 67.5 µM (inactive)
- IC50 [6]: > 67.5 µM (inactive)
- EC50 (cells [7]): > 67.5 µM (inactive)
- EC50 [8]: > 67.5 µM (inactive)

SMILES: Cn1ccnc1SCC(=O)c1c[nH]c2ccccc12
- EC50 (H4): < 0.195 µM (active)
- EC50 [5]: > 67.5 µM (inactive)
- IC50 [6]: > 67.5 µM (inactive)
- EC50 [9]: 0.343 µM (active)

SMILES: Cc1ccc(C(=N)NOC(=O)c2cccs2)cc1
- EC50 [1]: > 67.6 µM (inactive)

SMILES: CCCCN(CCCC)S(=O)(=O)c1ccc(NC(=O)c2cccs2)cc1
- EC50 [10]: > 60 µM (not active)
- CC50 [11]: 27.9 µM (active)
- EC50 [12]: 1.83 µM (active)

SMILES: CCC1(CC)Cc2ccccc2-c2nc(S)nc(O)c21
- IC50 (Major prion protein): 3.08 µM (active)
- IC50 (cells [4]): > 138 µM (inactive)

SMILES: C[C@@H]1CN([C@H](C)CO)C(=O)c2cc(NS(=O)(=O)c3ccccc3)ccc2O[C@@H](C)CCCCO[C@@H]1CN(C)Cc1ccc(Cl)c(Cl)c1
- AC50 (Paired box protein Pax-8): 4.44 µM (active)
- AC50 [13]: 27.8 µM (active)
- AC50 [14]: 46.5 µM (active)

SMILES: COc1ccc(S(=O)(=O)Nc2ccc3c(c2)C(=O)N([C@@H](C)CO)C[C@H](C)[C@@H](CN(C)Cc2ccc(C(F)(F)F)cc2)OCCCC[C@H](C)O3)cc1
- AC50 (Paired box protein Pax-8): 6.83 µM (active)
- AC50 [15]: 46.7 µM (active)
- AC50 [13]: 37.9 µM (active)
- AC50 [14]: > 70 µM (inactive)

SMILES: COc1ccccc1S(=O)(=O)N1CC[C@H]2[C@@H](CO)N(C)c3ccc(-c4ccc(C#N)cc4)cc3[C@H]21
- AC50 (Paired box protein Pax-8): 38.1 µM (active)
- AC50 [15]: 37.8 µM (active)

SMILES: CCOC(=O)N1CCC(/N=c2/c(-c3ccc(C)cc3)c(O)c2=O)CC1
- EC50 [5]: > 67.5 µM (inactive)
- IC50 [6]: > 67.5 µM (inactive)

SMILES: Cc1cc(C(=O)N/N=C/c2cc(Cl)cc([N+](=O)[O-])c2O)[nH]n1
- IC50 (Albumin): > 94.1 µM (inactive)
- EC50 [16]: > 300 µM (inconclusive)
- IC50 (Aminopeptidase N): 52.3 µM (active)
- EC50 [17]: > 300 µM (not active)

SMILES: O=C(O)c1cc(-c2cccs2)nc2ccc(Br)cc12
- IC50 (Major prion protein): 1.41 µM (active)
- IC50 (cells [4]): > 138 µM (inactive)
